For 1 compound, Ki results are on record in US5250540A, “Aminomethyl-substituted 2,3-dihydropyrano[2,3-b]pyridines and their use in medicaments” (Bayer Aktiengesellschaft, priority 1991, dated 1993).

Structures are written as SMILES. Where a name gives a salt, the structure may show the parent alone.

The assay has as its target 5-HT1-receptor (5-hydroxytryptamine receptors of subtype 1). Kind of assay: receptor binding studies using preparations of calf hippocampus membranes, radioligand 3H-serotonin. The conditions noted are these: ^3 H-serotonin as radioactively labelled ligand. From the text: In Table 1 the high affinity of the compounds according to the invention for 5-hydroxytryptamine receptors of subtype 1 is exemplified. The values given relate to data obtained from receptor binding studies using preparations of calf hippocampus membranes. The radioactively labelled ligand used for this was ^3 H-serotonin.

The Ki is a dissociation constant, usually derived from enzyme kinetics or from competition with a known ligand. As to `O=C1c2ccccc2S(=O)(=O)N1CCCCNCC1CCc2cccnc2O1` (stereo not shown) [Example 4, 2-N-(4-Butylsaccharinyl)-aminomethyl-2,3-dihydropyrano2,3-b]pyridine HCl salt], the Ki worked out at 1 nM.
